Results: ChEMBL document CHEMBL1140558, “An atom efficient, solvent-free, green synthesis and antimycobacterial evaluation of 2-amino-6-methyl-4-aryl-8-[(E)-arylmethylidene]-5,6,7,8-tetrahydro-4H-pyrano[3,2-c]pyridine-3-carbonitriles” (2007)
Values after ≈ are worked out from the molar mass of the structure shown.

Tests used:
[1] = test system: Mycobacterium tuberculosis; experiment: Antimycobacterial activity against Mycobacterium tuberculosis H37Rv by agar dilution method; type: functional
[2] = test system: Mycolicibacterium smegmatis; experiment: Antimycobacterial activity against Mycobacterium smegmatis ATCC 14468 by agar dilution method; type: functional

| Structure (SMILES) | MIC [1] [µM] | MIC [2] [µM] |
| --- | --- | --- |
| CN1CC2=C(OC(N)=C(C#N)C2c2cccc(F)c2)/C(=C/c2cccc(F)c2)C1 (centres undefined) | 0.99 (≈ 0.388 µg/mL) | 32 (≈ 12.5 µg/mL) |
| Cc1ccccc1/C=C1\CN(C)CC2=C1OC(N)=C(C#N)C2c1ccccc1C (centres undefined) | 16.3 (≈ 6.26 µg/mL) | 32.6 (≈ 12.5 µg/mL) |
| CN1CC2=C(OC(N)=C(C#N)C2c2ccc(F)cc2)/C(=C/c2ccc(F)cc2)C1 (centres undefined) | 0.97 (≈ 0.38 µg/mL) | 32 (≈ 12.5 µg/mL) |
| Cc1ccc(/C=C2\CN(C)CC3=C2OC(N)=C(C#N)C3c2ccc(C)cc2)cc1 (centres undefined) | 16.3 (≈ 6.26 µg/mL) | 65.3 (≈ 25 µg/mL) |
| CN1CC2=C(OC(N)=C(C#N)C2c2ccc(N(C)C)cc2)/C(=C/c2ccc(N(C)C)cc2)C1 (centres undefined) | 0.43 (≈ 0.19 µg/mL) | 28.3 (≈ 12.5 µg/mL) |
| COc1ccccc1/C=C1\CN(C)CC2=C1OC(N)=C(C#N)C2c1ccccc1OC (centres undefined) | 15.1 (≈ 6.26 µg/mL) | 30.1 (≈ 12.5 µg/mL) |
| CN1CC2=C(OC(N)=C(C#N)C2c2ccccc2Cl)/C(=C/c2ccccc2Cl)C1 (centres undefined) | 1.84 (≈ 0.781 µg/mL) | 59 (≈ 25 µg/mL) |
| CN1CC2=C(OC(N)=C(C#N)C2c2ccccc2)/C(=C/c2ccccc2)C1 (centres undefined) | 35.2 (≈ 12.5 µg/mL) | 70.4 (≈ 25 µg/mL) |
| CN1CC2=C(OC(N)=C(C#N)C2c2ccc(Cl)cc2Cl)/C(=C/c2ccc(Cl)cc2Cl)C1 (centres undefined) | 25.4 (≈ 12.5 µg/mL) | 50.7 (≈ 25 µg/mL) |
| CN1CC2=C(OC(N)=C(C#N)C2c2cccs2)/C(=C/c2cccs2)C1 (centres undefined) | 68.1 (≈ 25 µg/mL) | 34.1 (≈ 12.5 µg/mL) |
| COc1ccc(/C=C2\CN(C)CC3=C2OC(N)=C(C#N)C3c2ccc(OC)cc2)cc1 (centres undefined) | 30.1 (≈ 12.5 µg/mL) | 60.2 (≈ 25 µg/mL) |
| CN1CC2=C(OC(N)=C(C#N)C2c2cccc([N+](=O)[O-])c2)/C(=C/c2cccc([N+](=O)[O-])c2)C1 (centres undefined) | 1.75 (≈ 0.78 µg/mL) | 56.2 (≈ 25 µg/mL) |
| NNC(=O)c1ccncc1 [ISONIAZID] | 0.36 (≈ 0.0494 µg/mL) | 45.6 (≈ 6.25 µg/mL) |
| COc1c(N2CCNC(C)C2)c(F)cc2c(=O)c(C(=O)O)cn(C3CC3)c12 (centres undefined) [GATIFLOXACIN] | 2.08 (≈ 0.781 µg/mL) | 2.08 (≈ 0.781 µg/mL) |
| CN1CC2=C(OC(N)=C(C#N)C2c2ccco2)/C(=C/c2ccco2)C1 (centres undefined) | 37.3 (≈ 12.5 µg/mL) | 37.3 (≈ 12.5 µg/mL) |
| CN1CC2=C(OC(N)=C(C#N)C2c2ccc(Cl)cc2)/C(=C/c2ccc(Cl)cc2)C1 (centres undefined) | 0.92 (≈ 0.39 µg/mL) | 3.68 (≈ 1.56 µg/mL) |
| CN1CC2=C(OC(N)=C(C#N)C2/C=C/c2ccccc2)/C(=C/C=C/c2ccccc2)C1 (centres undefined) | 30.7 (≈ 12.5 µg/mL) | 30.7 (≈ 12.5 µg/mL) |
